Experimental data from ChEMBL document CHEMBL1201862, “PubChem BioAssay data set” (2004).
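Growth conditions: 96-well plates. Treatment: test compound, 48 hours, 5 concentrations. Analysis: linear interpolation between bracketing concentrations; unreached endpoints set to highest concentration. GI50 marks 50% less growth.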 Activity calls are given as the source filed them. No stated cut-off is given here; in the data, active = GI50 up to about 1.1 µM and inactive = higher.

Columns and labels:
Experiment in all cases: NCI-60 cell line screen, 48 h
[1] = test system: 786-0
[2] = test system: A549
[3] = test system: BT-549
[4] = test system: EKVX
[5] = test system: IGROV-1
[6] = test system: K562
[7] = test system: KM12
[8] = test system: M14
[9] = test system: MCF7
[10] = test system: MOLT-4
[11] = test system: Malme-3M
[12] = test system: NCI-H460
[13] = test system: NCI/ADR-RES
[14] = test system: OVCAR-8
[15] = test system: SK-OV-3
[16] = test system: SN12C
[17] = test system: SNB-19
[18] = test system: SNB-75
[19] = test system: SW-620
[20] = test system: U-251

SMILES	GI50 [1]	GI50 [2]	GI50 [3]	GI50 [4]	GI50 [5]	GI50 [6]	GI50 [7]	GI50 [8]	GI50 [9]	GI50 [10]	GI50 [11]	GI50 [12]	GI50 [13]	GI50 [14]	GI50 [15]	GI50 [16]	GI50 [17]	GI50 [18]	GI50 [19]	GI50 [20]
CC(=O)NC1C(OCc2ccccc2)OC(CO)C(O)C1OCC(=O)N1CCCC1C(=O)N[C@@H](CCC(=O)NCCNCCNc1c2ccccc2nc2cccc([N+](=O)[O-])c12)C(N)=O (stereo not given in full)	2.14 µM (inactive)	1.52 µM (inactive)	4.82 µM (inactive)	7.57 µM (inactive)	2.56 µM (inactive)	0.655 µM (active)	3.46 µM (inactive)	2.92 µM (inactive)	0.724 µM (active)	1.33 µM (inactive)	2.57 µM (inactive)	0.849 µM (active)	7.45 µM (inactive)	2.19 µM (inactive)	10.4 µM (inactive)	1.39 µM (inactive)	5.5 µM (inactive)	6.64 µM (inactive)	1.31 µM (inactive)	2.44 µM (inactive)
CCC/C(C)=N/NC(=S)SC.CCC/C(C)=N/NC(=S)SC.[Zn+2]	10.9 µM (inactive)	12.6 µM (inactive)	10.6 µM (inactive)	15 µM (inactive)	2.56 µM (inactive)	16.6 µM (inactive)	11.5 µM (inactive)	11.1 µM (inactive)	7.24 µM (inactive)	1.47 µM (inactive)	2.9 µM (inactive)	16 µM (inactive)	16.7 µM (inactive)	1.89 µM (inactive)	16.2 µM (inactive)	2.94 µM (inactive)	16.2 µM (inactive)	18.7 µM (inactive)	9.44 µM (inactive)	1.84 µM (inactive)
N=c1oc2ccccc2cc1-c1nc2ccccc2c(=O)[nH]1	31.4 µM (inactive)	78.3 µM (inactive)	23.8 µM (inactive)	35.6 µM (inactive)	6 µM (inactive)	> 100 µM (inactive)	39.8 µM (inactive)	> 100 µM (inactive)	19.5 µM (inactive)	> 100 µM (inactive)	60.8 µM (inactive)	64.7 µM (inactive)	72.6 µM (inactive)	60.3 µM (inactive)	> 100 µM (inactive)	> 100 µM (inactive)	30.1 µM (inactive)	2.72 µM (inactive)	72.3 µM (inactive)	32 µM (inactive)
Cc1c2ccccc2c(C)n2c1nc1ccccc12	4.68 µM (inactive)	4.37 µM (inactive)	15.1 µM (inactive)	14 µM (inactive)	11.6 µM (inactive)	4.1 µM (inactive)	7.53 µM (inactive)	9.35 µM (inactive)	2.24 µM (inactive)	2.9 µM (inactive)	8.69 µM (inactive)	4.1 µM (inactive)	8.57 µM (inactive)	4.97 µM (inactive)	5.96 µM (inactive)	5.2 µM (inactive)	9.71 µM (inactive)	12.5 µM (inactive)	3.73 µM (inactive)	5.6 µM (inactive)
O=C(O)c1cc2cc(c1)/N=C/c1ccccc1OCc1cccc(n1)COc1ccccc1/C=N/2	10.6 µM (inactive)	> 25 µM (inactive)	23.6 µM (inactive)	> 25 µM (inactive)	20.4 µM (inactive)	10.1 µM (inactive)	13 µM (inactive)	11.1 µM (inactive)	6.79 µM (inactive)	20 µM (inactive)	3.64 µM (inactive)	> 25 µM (inactive)	5.93 µM (inactive)	> 25 µM (inactive)	> 25 µM (inactive)	14.8 µM (inactive)	17.3 µM (inactive)	> 25 µM (inactive)	9.68 µM (inactive)	7.66 µM (inactive)
COC1=C(OC)C(=O)C(Sc2ccc3ccccc3c2)=CC1=O	3.72 µM (inactive)	12 µM (inactive)	9.2 µM (inactive)	11.9 µM (inactive)	12.4 µM (inactive)	2.99 µM (inactive)	5.86 µM (inactive)	4.35 µM (inactive)	4.25 µM (inactive)	1.68 µM (inactive)	11.9 µM (inactive)	7.67 µM (inactive)	14.7 µM (inactive)	10.4 µM (inactive)	16.1 µM (inactive)	7.87 µM (inactive)	14.1 µM (inactive)	12.8 µM (inactive)	3.5 µM (inactive)	4.89 µM (inactive)
CCOC1CN=C(Nc2cccc3ccccc23)S1 (stereo not given)	> 10 µM (inactive)	> 10 µM (inactive)	> 10 µM (inactive)	> 10 µM (inactive)	> 10 µM (inactive)	> 10 µM (inactive)	> 10 µM (inactive)	> 10 µM (inactive)	> 10 µM (inactive)	> 10 µM (inactive)	> 10 µM (inactive)	> 10 µM (inactive)	> 10 µM (inactive)	> 10 µM (inactive)	> 10 µM (inactive)	> 10 µM (inactive)	> 10 µM (inactive)	> 10 µM (inactive)	> 10 µM (inactive)	> 10 µM (inactive)
Nc1ccc(-c2nc3cc(F)ccc3s2)cc1CO	30.9 µM (inactive)	> 69 µM (inactive)	21.2 µM (inactive)	17.8 µM (inactive)	< 0.01 µM (active)	> 100 µM (inactive)	> 100 µM (inactive)	> 49.5 µM (inactive)	< 0.01 µM (active)	> 100 µM (inactive)	> 72.3 µM (inactive)	3.04 µM (inactive)	53.6 µM (inactive)	28.6 µM (inactive)	16.7 µM (inactive)	32.7 µM (inactive)	27.1 µM (inactive)	19.2 µM (inactive)	> 100 µM (inactive)	16.4 µM (inactive)
COc1ccc(COC(=O)NNC(=O)C2CSC(c3ccccc3)N2C(C)=O)cc1 (stereo not given)	> 100 µM (inactive)	> 100 µM (inactive)	> 100 µM (inactive)	> 100 µM (inactive)	> 100 µM (inactive)	> 100 µM (inactive)	> 100 µM (inactive)	> 100 µM (inactive)	> 100 µM (inactive)	> 100 µM (inactive)	> 100 µM (inactive)	> 100 µM (inactive)	> 100 µM (inactive)	> 100 µM (inactive)	> 100 µM (inactive)	> 100 µM (inactive)	> 100 µM (inactive)	> 100 µM (inactive)	> 100 µM (inactive)	> 100 µM (inactive)
O=[N+]([O-])c1cccc2nc3ccccc3c(NCCCN3CCCCC3)c12	< 0.01 µM (active)	< 0.01 µM (active)	0.0286 µM (active)	< 0.01 µM (active)	< 0.0104 µM (active)	< 0.0123 µM (active)	0.014 µM (active)	0.0116 µM (active)	< 0.01 µM (active)	< 0.01 µM (active)	0.0164 µM (active)	< 0.01 µM (active)	0.418 µM (active)	0.0132 µM (active)	0.028 µM (active)	< 0.0105 µM (active)	0.0233 µM (active)	0.0205 µM (active)	< 0.01 µM (active)	< 0.0135 µM (active)
C/C(=N\NC(=S)N1CCCCC1)c1nc2cccnc2[nH]1	18 µM (inactive)	6.7 µM (inactive)	4.3 µM (inactive)	5.3 µM (inactive)	21 µM (inactive)	6.9 µM (inactive)	9.02 µM (inactive)	7.46 µM (inactive)	3.67 µM (inactive)	3.41 µM (inactive)	27.9 µM (inactive)	4.03 µM (inactive)	3.83 µM (inactive)	4.19 µM (inactive)	41.6 µM (inactive)	19.7 µM (inactive)	15.7 µM (inactive)	38.4 µM (inactive)	6.38 µM (inactive)	9.46 µM (inactive)
C=C1c2nc3ccccc3n2C=C(c2ccc(Cl)cc2)N1c1ccccc1	13.3 µM (inactive)	14.1 µM (inactive)	6.64 µM (inactive)	14.8 µM (inactive)	7.73 µM (inactive)	40.6 µM (inactive)	12.3 µM (inactive)	16.3 µM (inactive)	13 µM (inactive)	> 100 µM (inactive)	12.1 µM (inactive)	12.4 µM (inactive)	12.2 µM (inactive)	9.51 µM (inactive)	16.9 µM (inactive)	39.9 µM (inactive)	6.56 µM (inactive)	3.5 µM (inactive)	25.3 µM (inactive)	18.7 µM (inactive)
CCCCCCCCCCCCCCCCOCC(CCl)OP(=O)(O)OP(=O)(O)OCC1OC(n2ccc(N)nc2=O)C(O)C1O (stereo not given)	> 100 µM (inactive)	> 100 µM (inactive)	> 100 µM (inactive)	> 100 µM (inactive)	> 100 µM (inactive)	> 100 µM (inactive)	> 100 µM (inactive)	> 100 µM (inactive)	> 100 µM (inactive)	> 100 µM (inactive)	> 100 µM (inactive)	> 100 µM (inactive)	> 100 µM (inactive)	> 100 µM (inactive)	> 100 µM (inactive)	> 100 µM (inactive)	> 100 µM (inactive)	6.07 µM (inactive)	> 100 µM (inactive)	> 100 µM (inactive)
CCN(CC)CCN(C)c1ccc(CO)c2c1c(=O)c1ccccc1[s+]2[O-] (stereo not given)	1.71 µM (inactive)	11.3 µM (inactive)	13.8 µM (inactive)	5.96 µM (inactive)	16.9 µM (inactive)	3.83 µM (inactive)	1.98 µM (inactive)	2.11 µM (inactive)	9.77 µM (inactive)	2.25 µM (inactive)	11.9 µM (inactive)	4.62 µM (inactive)	1.74 µM (inactive)	1.8 µM (inactive)	16.1 µM (inactive)	15.2 µM (inactive)	13.2 µM (inactive)	14.8 µM (inactive)	1.88 µM (inactive)	1.69 µM (inactive)
